Twelve compounds from US20240199605A1, “SMALL MOLECULAR INHIBITORS OF NF-kB INDUCING KINASE” (Janssen Pharmaceutica NV, priority 2019, published 2024) can be followed below.

Assay [1] concerns p-IKKα levels in L363 (NIK translocated multiple myeloma) cells. Nature of the assay: Effect of compounds on p-IKKα levels in L363 cells (AlphaLISA SureFire Ultra). Format: cell-based, human. Particulars: Homo sapiens, L-363, 6 h, BAFF stimulated, MG132, 6 h, average of values, read-out: Assay 2 IC50. In a few lines: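 Inhibition of p-IKKα (Ser176/180) read by AlphaLISA after 6 h, 37 °C compound exposure (11-point 1:3 series, 0.3% DMSO) of L363 cells pre-incubated overnight ± 250 ng/ml BAFF and plated ± BAFF ± 10 μM MG132. Normalised to BAFF/MG132/DMSO and unstimulated controls; IC50 by sigmoidal fitting, duplicates.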
Background: In Alpha technology, singlet oxygen from a donor bead excites a nearby acceptor bead.

Assay [2] addresses recombinant human NF-kappaB-inducing kinase (NIK/MAP3K14) (Homo sapiens (Human), UniProt Q99558). Nature of the assay: Inhibition of auto-phosphorylation of recombinant human NIK/MAP3K14 (AlphaScreen). Format: biochemical. Particulars: NIK auto-phosphorylation, 5 μM ATP, 1 nM NIK, 2 h at 25° C.; average of values. An outline of the steps:
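AlphaScreen read-out (anti-phospho-IKK Ser176/180 antibody, Protein A acceptor and glutathione donor beads) of NIK auto-phosphorylation. Reaction: 1 nM enzyme, 5 μM ATP, Tris pH 7.5 buffer with Mg2+ and vanadate, 2 h at 25° C., final DMSO 0.7%. IC50 came from a sigmoidal curve fit.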

recombinant human NF-kappaB-inducing kinase (NIK/MAP3K14), sequence (Q99558 whole entry): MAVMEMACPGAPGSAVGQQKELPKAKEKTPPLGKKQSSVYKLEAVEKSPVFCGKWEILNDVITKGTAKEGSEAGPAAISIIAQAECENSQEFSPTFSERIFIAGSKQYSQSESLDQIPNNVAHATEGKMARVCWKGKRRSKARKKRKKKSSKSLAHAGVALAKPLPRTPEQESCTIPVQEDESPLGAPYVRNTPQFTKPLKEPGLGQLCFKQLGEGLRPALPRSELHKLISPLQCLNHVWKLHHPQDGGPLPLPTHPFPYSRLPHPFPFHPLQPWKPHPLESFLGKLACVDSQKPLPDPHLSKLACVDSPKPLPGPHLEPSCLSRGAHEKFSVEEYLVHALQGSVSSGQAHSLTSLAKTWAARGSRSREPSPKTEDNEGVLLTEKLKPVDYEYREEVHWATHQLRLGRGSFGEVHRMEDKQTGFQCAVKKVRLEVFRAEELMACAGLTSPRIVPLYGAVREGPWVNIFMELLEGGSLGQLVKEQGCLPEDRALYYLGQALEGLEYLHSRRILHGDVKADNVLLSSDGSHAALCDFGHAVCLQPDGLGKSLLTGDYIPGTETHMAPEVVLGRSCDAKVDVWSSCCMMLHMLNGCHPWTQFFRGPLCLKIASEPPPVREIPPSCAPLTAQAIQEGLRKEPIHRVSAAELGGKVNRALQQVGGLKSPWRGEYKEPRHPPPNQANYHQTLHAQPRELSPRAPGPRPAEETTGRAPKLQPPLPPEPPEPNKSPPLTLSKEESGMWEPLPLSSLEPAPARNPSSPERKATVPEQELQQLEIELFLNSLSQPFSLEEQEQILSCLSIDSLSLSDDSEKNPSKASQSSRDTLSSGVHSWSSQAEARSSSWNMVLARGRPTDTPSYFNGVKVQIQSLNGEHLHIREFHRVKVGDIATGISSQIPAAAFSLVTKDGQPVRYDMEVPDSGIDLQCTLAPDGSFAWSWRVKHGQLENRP

By IC50 is commonly meant the concentration that inhibits the measured activity by half. `CN1CC[C@@](O)(C#Cc2cccc(-c3ccc4cnnc(N)c4c3)c2)C1=O` [Example 96, (R)-3-[2-[3-(4-Aminophthalazin-6-yl)phenyl]ethynyl]-3-hydroxy-1-methyl-pyrrolidin-2-one]: the IC50 in assay [1] was more than 5000 nM; in assay [2], 29 nM.

Regarding `Cc1nc(N)c2nc(-c3cccc(C#C[C@](C)(O)c4scnc4C)c3)ccc2n1` [Example 162, (S)-4-(3-(4-Amino-2-methylpyrido[3,2-d]pyrimidin-6-yl)phenyl)-2-(4-methylthiazol-5-yl)but-3-yn-2-ol], the concentration for half-maximal inhibition (IC50) in assay [1] and in assay [2] was more than 5000 nM each time.

`C[C@@](O)(C#Cc1cccc(-c2ccc3ncnc(N)c3c2)c1)c1nccs1` [Example 105, (R)-4-[3-(4-Aminoquinazolin-6-yl)phenyl]-2-thiazol-2-yl-but-3-yn-2-ol]: the IC50 in assay [1] came to 64 nM; in assay [2], 0.6 nM.

As to `Cc1nc(N)c2nc(-c3cccc(C#C[C@](C)(O)c4ncc(C)s4)c3)ccc2n1` [Example 166, (S)-4-(3-(4-Amino-2-methylpyrido[3,2-d]pyrimidin-6-yl)phenyl)-2-(5-methylthiazol-2-yl)but-3-yn-2-ol], the IC50 in assay [1] was more than 5000 nM; in assay [2], 4700 nM.

With `Cc1cc([C@](C)(O)C#Cc2cccc(-c3ncc4ccnc(N)c4n3)c2)no1` [Example 34, (R)-4-[3-(8-Aminopyrido[3,4-d]pyrimidin-2-yl)phenyl]-2-(5-methylisoxazol-3-yl)but-3-yn-2-ol], the IC50 in assay [1] is 52 nM; in assay [2] it was not above 0.5 nM.

For the compound `Cc1nc(N)c2nc(-c3cccc(C#C[C@@](C)(O)c4ncccn4)c3)ccc2n1` [Example 197, (R)-4-[3-(4-Amino-2-methyl-pyrido[3,2-d]pyrimidin-6-yl)phenyl]-2-pyrimidin-2-yl-but-3-yn-2-ol], the half-maximal inhibitory concentration (IC50) in assay [1] was found to be 380 nM; in assay [2], 6.3 nM.

As for `CN1CC[C@@](O)(C#Cc2cccc(-c3cc(-c4ccco4)c4ncnc(N)c4n3)c2)C1=O` [Example 312, (R)-3-((3-(4-Amino-8-(furan-2-yl)pyrido[3,2-d]pyrimidin-6-yl)phenyl)ethynyl)-3-hydroxy-1-methylpyrrolidin-2-one], the IC50 in assay [1] came to 11 nM; in assay [2], 0.8 nM.

Regarding `CN1CC[C@@](O)(C#Cc2cccc(-c3ccc4c(c3)c(N)nn4C(=O)OC(C)(C)C)c2)C1=O` [Example 169, (R)-tert-Butyl 3-amino-5-[3-[2-(3-hydroxy-1-methyl-2-oxo-pyrrolidin-3-yl)ethynyl]phenyl]indazole-1-carboxylate], the values for the IC50 in assay [1] and in assay [2] were more than 5000 nM and 1210 nM, respectively.

In the case of `Cc1cc2cnc(-c3cccc(C#C[C@@](C)(O)c4nccs4)c3)nc2c(N)n1` [Example 51, (R)-4-(3-(8-Amino-6-methylpyrido[3,4-d]pyrimidin-2-yl)phenyl)-2-(thiazol-2-yl)but-3-yn-2-ol], the values for the IC50 in assay [1] and in assay [2] were 480 nM and 1 nM, respectively.

As to `CN1CC[C@@](O)(C#Cc2cccc(-c3cc(C4CC4)c4ncnc(N)c4n3)c2)C1=O` [Example 302, (R)-3-((3-(4-Amino-8-cyclopropylpyrido[3,2-d]pyrimidin-6-yl)phenyl)ethynyl)-3-hydroxy-1-methylpyrrolidin-2-one], the values for the 50% inhibitory concentration (IC50) in assay [1] and in assay [2] were 4.5 nM and not above 0.5 nM, respectively.

Turning to `CN1CC[C@@](O)(C#Cc2cccc(-c3cc(-c4cccs4)c4ncnc(N)c4n3)c2)C1=O` [Example 311, (R)-3-((3-(4-Amino-8-(thiophen-2-yl)pyrido[3,2-d]pyrimidin-6-yl)phenyl)ethynyl)-3-hydroxy-1-methylpyrrolidin-2-one], the values for the 50% inhibitory concentration (IC50) in assay [1] and in assay [2] were 3.6 nM and not above 0.5 nM, respectively.

Regarding `Cc1cc([C@](C)(O)C#Cc2ccc(C)c(-c3nc4c(N)ncnc4s3)c2)no1` [Example 217, (R)-4-[3-(7-Aminothiazolo[5,4-d]pyrimidin-2-yl)-4-methyl-phenyl]-2-(5-methylisoxazol-3-yl)but-3-yn-2-ol], the IC50 in assay [1] amounted to 77 nM; in assay [2], 0.9 nM.
